In patent EP4722212A1, “NOVEL COMPOUND FOR INHIBITING PROTEIN KINASES AND PHARMACEUTICAL COMPOSITION COMPRISING SAME” (Magicbullettherapeutics Co., Ltd., priority 2023, dated 2024):
Where two headings read alike, the source gives them in different places.

Assays:
Test in all cases: Kinase panel
Assay type in all cases: biochemical
ALK4/ACVR1B = ALK4/ACVR1B (Homo sapiens, UniProt P36896); conditions: read-out: residual enzyme activity
Protocol: (§1) To measure the inhibitory activity of protein kinases against the compounds of the present invention, a biochemical assay was performed using a full kinase panel. The inhibitory efficacy of kinases was measured when Example compounds 8 and 51 were treated at a single concentration of 1 µM, and residual enzyme activity values were calculated. Kinases were identified when the calculated residual enzyme activity values were 40% or less, i.e., inhibited by 60% or more.

ARK5/NUAK1 = ARK5/NUAK1 (Homo sapiens, UniProt O60285); conditions: read-out: residual enzyme activity
Protocol: as §1

CAMK1B = CAMK1B (Homo sapiens, UniProt Q6P2M8); conditions: read-out: residual enzyme activity
Protocol: as §1

CAMK2D = CAMK2D (Homo sapiens, UniProt Q13557); conditions: read-out: residual enzyme activity
Protocol: as §1

CDK6/CYCLIN D1 = CDK6/CYCLIN D1 (Homo sapiens, UniProt Q00534); conditions: CDK6/cyclin D1, 1 µM; read-out: residual enzyme activity
Protocol: as §1

CK2A2 = CK2A2 (Homo sapiens, UniProt P19784); conditions: read-out: residual enzyme activity
Protocol: as §1

DYRK1B = DYRK1B (Homo sapiens, UniProt Q9Y463); conditions: read-out: residual enzyme activity
Protocol: as §1

EPHA7 = EPHA7 (Homo sapiens, UniProt Q15375); conditions: EPHA7, 1 µM; read-out: residual enzyme activity
Protocol: as §1

ERBB2/HER2 = ERBB2/HER2 (Homo sapiens, UniProt P04626); conditions: ERBB2/HER2, 1 µM; read-out: residual enzyme activity
Protocol: as §1

FLT3 = FLT3 (Homo sapiens, UniProt P36888); conditions: FLT3, 1 µM; read-out: residual enzyme activity
Protocol: as §1

GRK5 = GRK5 (Homo sapiens, UniProt P34947); conditions: GRK5, 1 µM; read-out: residual enzyme activity
Protocol: as §1

HPK1/MAP4K1 = HPK1/MAP4K1 (Homo sapiens, UniProt Q92918); conditions: HPK1/MAP4K1, 1 µM; read-out: residual enzyme activity
Protocol: as §1

IGFIR = IGFIR (Homo sapiens, UniProt P08069); conditions: read-out: residual enzyme activity
Protocol: as §1

IRAK1 = IRAK1 (Homo sapiens, UniProt P51617); conditions: IRAK1, 1 µM; read-out: residual enzyme activity
Protocol: as §1

JAK3 = JAK3 (Homo sapiens, UniProt P52333); conditions: JAK3, 1 µM; read-out: residual enzyme activity
Protocol: as §1

LATS2 = LATS2 (Homo sapiens, UniProt Q9NRM7); conditions: LATS2, 1 µM; read-out: residual enzyme activity
Protocol: as §1

LYN B = LYN B (Homo sapiens, UniProt P07948); conditions: read-out: residual enzyme activity
Protocol: as §1

MARK4 = MARK4 (Homo sapiens, UniProt Q96L34); conditions: MARK4, 1 µM; read-out: residual enzyme activity
Protocol: as §1

MEKK1 = MEKK1 (Homo sapiens, UniProt Q13233); conditions: MEKK1, 1 µM; read-out: residual enzyme activity
Protocol: as §1

MKK4 = MKK4 (Homo sapiens, UniProt P45985); conditions: MKK4, 1 µM; read-out: residual enzyme activity
Protocol: as §1

MRCKA/CDC42BPA = MRCKA/CDC42BPA (Homo sapiens, UniProt Q5VT25); conditions: read-out: residual enzyme activity
Protocol: as §1

MRCKB/CDC42BPB = MRCKB/CDC42BPB (Homo sapiens, UniProt Q9Y5S2); conditions: read-out: residual enzyme activity
Protocol: as §1

MUSK = MUSK (Homo sapiens, UniProt O15146); conditions: read-out: residual enzyme activity
Protocol: as §1

PIM2 = PIM2 (Homo sapiens, UniProt Q9P1W9); conditions: PIM2, 1 µM; read-out: residual enzyme activity
Protocol: as §1

PLK2 = PLK2 (Homo sapiens, UniProt Q9NYY3); conditions: PLK2, 1 µM; read-out: residual enzyme activity
Protocol: as §1

PLK3 = PLK3 (Homo sapiens, UniProt Q9H4B4); conditions: PLK3, 1 µM; read-out: residual enzyme activity
Protocol: as §1

PLK4/SAK = PLK4/SAK (Homo sapiens, UniProt O00444); conditions: read-out: residual enzyme activity
Protocol: as §1

PYK2 = PYK2 (Homo sapiens, UniProt Q14289); conditions: PYK2, 1 µM; read-out: residual enzyme activity
Protocol: as §1

RSK2 = RSK2 (Homo sapiens, UniProt P51812); conditions: RSK2, 1 µM; read-out: residual enzyme activity
Protocol: as §1

STK33 = STK33 (Homo sapiens, UniProt Q9BYT3); conditions: STK33, 1 µM; read-out: residual enzyme activity
Protocol: as §1

STK38L/NDR2 = STK38L/NDR2 (Homo sapiens, UniProt Q9Y2H1); conditions: STK38L/NDR2, 1 µM; read-out: residual enzyme activity
Protocol: as §1

TSSK3/STK22C = TSSK3/STK22C (Homo sapiens, UniProt Q96PN8); conditions: read-out: residual enzyme activity
Protocol: as §1

VRK1 = VRK1 (Homo sapiens, UniProt Q99986); conditions: VRK1, 1 µM; read-out: residual enzyme activity
Protocol: as §1

Measured: remaining activity at 1 µM

ERBB2/HER2, sequence (P04626 23-1255): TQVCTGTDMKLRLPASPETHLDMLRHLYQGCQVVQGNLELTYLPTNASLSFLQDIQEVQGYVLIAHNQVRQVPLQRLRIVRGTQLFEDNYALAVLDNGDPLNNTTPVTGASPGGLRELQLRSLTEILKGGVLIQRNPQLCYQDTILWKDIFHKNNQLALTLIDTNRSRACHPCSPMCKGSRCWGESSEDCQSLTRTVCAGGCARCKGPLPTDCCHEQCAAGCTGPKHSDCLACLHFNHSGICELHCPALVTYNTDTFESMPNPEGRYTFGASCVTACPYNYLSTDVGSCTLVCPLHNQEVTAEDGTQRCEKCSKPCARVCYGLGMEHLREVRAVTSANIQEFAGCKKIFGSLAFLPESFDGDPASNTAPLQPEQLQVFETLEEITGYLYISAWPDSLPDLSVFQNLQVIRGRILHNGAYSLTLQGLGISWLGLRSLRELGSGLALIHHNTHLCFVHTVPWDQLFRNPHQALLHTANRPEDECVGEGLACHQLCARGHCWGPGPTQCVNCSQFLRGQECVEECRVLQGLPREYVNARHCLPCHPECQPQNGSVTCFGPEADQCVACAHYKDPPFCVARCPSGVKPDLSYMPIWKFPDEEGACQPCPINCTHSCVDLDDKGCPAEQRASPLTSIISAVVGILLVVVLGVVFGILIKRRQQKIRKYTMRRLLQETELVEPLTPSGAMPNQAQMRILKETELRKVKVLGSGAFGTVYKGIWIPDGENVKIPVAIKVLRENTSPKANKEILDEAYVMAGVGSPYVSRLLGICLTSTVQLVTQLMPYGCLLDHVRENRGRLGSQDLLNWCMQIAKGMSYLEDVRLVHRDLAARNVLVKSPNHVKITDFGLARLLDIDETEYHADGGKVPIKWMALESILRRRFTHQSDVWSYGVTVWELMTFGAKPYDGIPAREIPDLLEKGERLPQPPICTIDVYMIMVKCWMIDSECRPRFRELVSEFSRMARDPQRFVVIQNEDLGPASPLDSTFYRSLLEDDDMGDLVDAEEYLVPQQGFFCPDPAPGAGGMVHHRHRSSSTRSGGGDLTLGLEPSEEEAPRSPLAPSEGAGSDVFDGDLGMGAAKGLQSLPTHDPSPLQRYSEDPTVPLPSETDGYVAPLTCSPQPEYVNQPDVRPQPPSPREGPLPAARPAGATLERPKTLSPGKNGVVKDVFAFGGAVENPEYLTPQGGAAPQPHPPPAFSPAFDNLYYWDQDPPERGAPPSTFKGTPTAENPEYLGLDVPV
FLT3, sequence (P36888 27-993, species assumed): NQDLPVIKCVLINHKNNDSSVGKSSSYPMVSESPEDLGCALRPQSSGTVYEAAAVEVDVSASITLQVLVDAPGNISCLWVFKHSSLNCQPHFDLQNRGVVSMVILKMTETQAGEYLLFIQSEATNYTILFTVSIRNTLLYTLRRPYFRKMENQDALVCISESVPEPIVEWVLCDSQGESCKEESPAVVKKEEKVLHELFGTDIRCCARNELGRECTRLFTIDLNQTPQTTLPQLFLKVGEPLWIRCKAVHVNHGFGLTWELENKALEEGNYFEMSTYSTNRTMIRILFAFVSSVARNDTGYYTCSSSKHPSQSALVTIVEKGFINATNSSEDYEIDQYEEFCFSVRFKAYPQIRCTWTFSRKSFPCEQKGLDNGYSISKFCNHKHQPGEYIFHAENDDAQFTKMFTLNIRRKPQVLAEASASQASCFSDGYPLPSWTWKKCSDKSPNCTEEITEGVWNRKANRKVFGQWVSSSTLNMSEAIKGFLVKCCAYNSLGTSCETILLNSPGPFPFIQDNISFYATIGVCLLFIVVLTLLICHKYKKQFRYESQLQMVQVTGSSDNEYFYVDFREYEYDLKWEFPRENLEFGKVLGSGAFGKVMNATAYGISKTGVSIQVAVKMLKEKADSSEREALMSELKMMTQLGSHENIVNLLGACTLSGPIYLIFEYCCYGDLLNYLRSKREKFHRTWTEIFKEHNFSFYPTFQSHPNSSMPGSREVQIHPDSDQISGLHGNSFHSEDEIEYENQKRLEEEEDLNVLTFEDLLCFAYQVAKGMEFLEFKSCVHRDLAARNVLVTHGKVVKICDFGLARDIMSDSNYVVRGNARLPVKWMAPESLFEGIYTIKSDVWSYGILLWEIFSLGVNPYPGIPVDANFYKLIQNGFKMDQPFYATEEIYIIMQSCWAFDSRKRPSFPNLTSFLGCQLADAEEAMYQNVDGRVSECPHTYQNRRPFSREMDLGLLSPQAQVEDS
EPHA7, sequence (Q15375 28-998, species assumed): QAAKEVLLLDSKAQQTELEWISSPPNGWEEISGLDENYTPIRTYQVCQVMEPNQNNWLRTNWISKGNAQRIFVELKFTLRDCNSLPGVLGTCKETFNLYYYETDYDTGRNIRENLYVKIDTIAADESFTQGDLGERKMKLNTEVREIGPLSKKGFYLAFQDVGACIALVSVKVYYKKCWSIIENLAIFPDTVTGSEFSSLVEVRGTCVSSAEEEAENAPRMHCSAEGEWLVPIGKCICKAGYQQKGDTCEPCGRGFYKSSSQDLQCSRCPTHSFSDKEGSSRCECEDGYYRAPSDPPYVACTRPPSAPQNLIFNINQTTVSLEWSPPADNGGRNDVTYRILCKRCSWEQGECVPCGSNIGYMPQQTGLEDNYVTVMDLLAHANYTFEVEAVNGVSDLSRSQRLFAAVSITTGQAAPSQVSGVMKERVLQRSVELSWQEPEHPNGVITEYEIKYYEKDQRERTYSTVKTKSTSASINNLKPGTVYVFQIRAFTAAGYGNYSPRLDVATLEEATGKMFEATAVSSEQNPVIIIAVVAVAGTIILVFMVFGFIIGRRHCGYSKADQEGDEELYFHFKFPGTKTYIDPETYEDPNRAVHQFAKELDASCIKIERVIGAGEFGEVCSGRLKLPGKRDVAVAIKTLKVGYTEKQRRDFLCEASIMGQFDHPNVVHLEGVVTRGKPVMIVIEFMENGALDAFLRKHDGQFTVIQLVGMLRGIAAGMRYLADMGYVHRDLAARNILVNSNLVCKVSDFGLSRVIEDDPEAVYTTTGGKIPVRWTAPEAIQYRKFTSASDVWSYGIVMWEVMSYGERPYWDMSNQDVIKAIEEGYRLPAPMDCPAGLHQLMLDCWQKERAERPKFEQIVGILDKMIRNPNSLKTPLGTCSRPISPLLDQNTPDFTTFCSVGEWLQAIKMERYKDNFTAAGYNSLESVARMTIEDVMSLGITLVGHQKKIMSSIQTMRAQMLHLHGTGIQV
MRCKB/CDC42BPB, sequence (Q9Y5S2 whole entry): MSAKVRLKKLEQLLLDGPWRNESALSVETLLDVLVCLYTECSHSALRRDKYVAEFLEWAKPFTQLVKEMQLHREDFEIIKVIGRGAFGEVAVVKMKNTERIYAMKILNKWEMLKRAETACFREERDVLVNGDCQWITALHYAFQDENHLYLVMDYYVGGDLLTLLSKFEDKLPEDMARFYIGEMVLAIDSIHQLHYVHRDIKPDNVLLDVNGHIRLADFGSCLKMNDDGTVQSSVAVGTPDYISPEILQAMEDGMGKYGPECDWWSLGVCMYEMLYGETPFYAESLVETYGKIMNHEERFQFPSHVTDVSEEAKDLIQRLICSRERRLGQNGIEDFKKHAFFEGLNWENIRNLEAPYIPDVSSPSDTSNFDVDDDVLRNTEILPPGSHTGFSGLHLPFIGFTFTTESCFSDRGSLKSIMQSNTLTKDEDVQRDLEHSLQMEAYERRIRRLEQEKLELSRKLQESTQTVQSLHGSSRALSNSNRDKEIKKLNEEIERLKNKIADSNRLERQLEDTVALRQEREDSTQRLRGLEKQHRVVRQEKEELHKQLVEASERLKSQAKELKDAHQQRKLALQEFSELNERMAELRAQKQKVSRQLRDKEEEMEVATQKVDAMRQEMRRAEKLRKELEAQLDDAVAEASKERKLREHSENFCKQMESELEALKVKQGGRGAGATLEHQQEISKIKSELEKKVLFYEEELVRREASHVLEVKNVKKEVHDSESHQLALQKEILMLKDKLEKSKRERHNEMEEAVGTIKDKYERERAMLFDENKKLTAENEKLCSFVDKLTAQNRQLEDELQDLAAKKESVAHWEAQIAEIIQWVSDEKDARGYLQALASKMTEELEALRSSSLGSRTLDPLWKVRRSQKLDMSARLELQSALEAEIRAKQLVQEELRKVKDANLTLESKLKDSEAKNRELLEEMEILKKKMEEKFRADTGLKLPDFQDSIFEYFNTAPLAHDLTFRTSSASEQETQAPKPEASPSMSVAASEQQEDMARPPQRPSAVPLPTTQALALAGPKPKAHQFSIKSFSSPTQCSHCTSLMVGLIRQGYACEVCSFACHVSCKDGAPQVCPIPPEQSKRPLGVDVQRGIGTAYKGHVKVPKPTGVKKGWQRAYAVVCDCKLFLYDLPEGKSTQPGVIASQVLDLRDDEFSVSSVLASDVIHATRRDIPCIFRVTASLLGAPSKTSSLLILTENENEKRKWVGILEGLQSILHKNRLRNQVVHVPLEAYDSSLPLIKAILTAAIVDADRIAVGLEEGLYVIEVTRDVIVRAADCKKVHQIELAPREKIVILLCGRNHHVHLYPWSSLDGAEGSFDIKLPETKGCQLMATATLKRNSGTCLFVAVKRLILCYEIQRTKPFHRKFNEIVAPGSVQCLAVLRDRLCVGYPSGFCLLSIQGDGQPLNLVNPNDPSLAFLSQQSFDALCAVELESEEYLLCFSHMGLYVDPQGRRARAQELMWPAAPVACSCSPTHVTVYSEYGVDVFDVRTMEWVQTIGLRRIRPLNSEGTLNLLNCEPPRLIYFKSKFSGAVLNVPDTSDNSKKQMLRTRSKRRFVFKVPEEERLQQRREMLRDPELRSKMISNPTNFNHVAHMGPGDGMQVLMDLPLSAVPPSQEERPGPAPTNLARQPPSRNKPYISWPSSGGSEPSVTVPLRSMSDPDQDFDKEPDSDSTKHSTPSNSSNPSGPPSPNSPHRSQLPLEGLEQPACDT

Cc1cn(-c2cc(C(=O)Nc3ccc(C)c(N4Cc5cnc(NC6CC6)nc5C5(CC5)C4=O)c3)cc(C(F)(F)F)c2)cn1 [Compound 8, N-(3-(2'-(cyclopropylamino)-7'-oxo-5'H-spiro[cyclopropane-1,8'-pyrido[4,3-d]pyrimidine]-6'(7'H)-yl)-4-methylphenyl)-3-(4-methyl-1H-imidazol-1-yl)-5-(trifluoromethyl)benzamide]
> 40%: ALK4/ACVR1B | ARK5/NUAK1; ARK5/NUAK1, 1 µM | CAMK1B; CAMK1B | CAMK2D; CAMK2D | CDK6/CYCLIN D1 | CK2A2; CK2A2, 1 µM | DYRK1B | GRK5 | IGFIR | IRAK1 | MARK4 | MEKK1 | MKK4 | MRCKA/CDC42BPA | MRCKB/CDC42BPB | PIM2 | PLK2 | PLK3 | PLK4/SAK | RSK2 | STK33 | STK38L/NDR2 | TSSK3/STK22C | VRK1
≤ 40%: EPHA7 | ERBB2/HER2 | FLT3 | HPK1/MAP4K1 | JAK3 | LATS2 | LYN B | MUSK | PYK2

Cc1ccc(Nc2ncc3c(n2)C2(CC2)C(=O)N(c2cc(NC(=O)c4cccc(C(F)(F)F)c4)ccc2C)C3)cn1 [Compound 51, N-(4-methyl-3-(2'-((6-methylpyridin-3-yl)amino)-7'-oxo-5'H-spiro[cyclopropane-1,8'-pyrido[4,3-d]pyrimidine]-6'(7'H)-yl)phenyl)-3-(trifluoromethyl)benzamide]
≤ 40%: EPHA7 | ERBB2/HER2 | FLT3 | HPK1/MAP4K1 | JAK3 | LATS2 | LYN B | MUSK | PYK2
> 40%: ALK4/ACVR1B | ARK5/NUAK1; ARKS/NUAKl, 1 µM | CAMK1B; CAMK1b | CAMK2D; CAMK2d | CDK6/CYCLIN D1 | CK2A2; CK2a2, 1 µM | DYRK1B | GRK5 | IGFIR | IRAK1 | MARK4 | MEKK1 | MKK4 | MRCKA/CDC42BPA | MRCKB/CDC42BPB | PIM2 | PLK2 | PLK3 | PLK4/SAK | RSK2 | STK33 | STK38L/NDR2 | TSSK3/STK22C | VRK1
